Where two headings read alike, the source gives them in different places. Where a SMILES comes first, the peptide text is derived from it.
Columns and labels:
[1] = WST-1 cell viability, normal HME-1 cells; format: cell-based, human; conditions: human; HME-1 normal cells; 72 hrs, WST-1 (Table 2); read-out: Maximal efficacy, cytotoxicity (%) at 100 μM
Protocol: (§1) All commercial cell lines were purchased at ATCC (LGC Standards SARL, France). Cells were seeded in 96-well plates according to their optimal seeding density, varying between 5.000 and 10.000 cells/well. After attachment overnight, 10-point serial titrations (1:5) were prepared in their equivalent complete media as recommended by ATCC, starting from the 10 mM stock solutions. For doxorubicin comprising prodrugs dilutions started from 100 μM, while for the parent compound doxorubicin dilutions started at 10 μM. […] Seventy-two hours later, compounds were removed together with the supernatants and cells were washed once with PBS to remove excess drugs.
(§2) The WST-1 assay for cell proliferation and viability (Roche, Switzerland) was performed according to manufacturer's protocol. Absorbances were measured at 4 hrs using a Perkin Elmer Ensight multiplate reader, equipped with Kaleido 2.0 software (Perkin Elmer, USA). Cell viability was expressed as a percentage compared to non-treated cells. Absolute IC50 values were extrapolated from a non-linear fitting following the Sigmoidal-4PL regression method using Graphpad Prism 7.0. Likewise, maximal efficacy was determined as 100% minus the cell viability determined when cells are incubated in the presence of a compound. For instance, if 20% of the cells survive incubation in the presence of a compound, then the maximal efficacy of that compound is 100%-20%=80%.
(§3) Selectivity indices (SI) were defined as the ratio of the concentration of drug required to kill 50% of the cells in normal (control, non-cancer) cells, divided by the concentration required to exert the same efficacy in tumor cells: SI=IC50 (control cell)/IC50 (cancer cell), or SI=^HME-1IC50/cancer IC50.

[2] = tested on: HME-1 cells; assay: WST-1 cell viability, normal HME-1 cells; format: cell-based, human; conditions: for IC50: read-out: Absolute IC50
Protocol: as §1, §2, §3

[3] = tested on: MIA PaCa-2 cells; assay: WST-1 cell viability, MIA PaCa-2 pancreatic cancer cells; format: cell-based
Protocol: as §1, §2, §3

[4] = tested on: LS 174T cells; assay: WST-1 cell viability, LS 174T colorectal cancer cells; format: cell-based
Protocol: as §1, §2, §3

[5] = tested on: HCT-116 cells; assay: WST-1 cell viability, HCT-116 colorectal cancer cells; format: cell-based
Protocol: as §1, §2, §3

[6] = tested on: A-172 cells; assay: WST-1 cell viability, A-172 glioblastoma cells; format: cell-based; conditions: for IC50: read-out: Absolute IC50
Protocol: as §1, §2, §3

[7] = tested on: U-87 MG cells; assay: WST-1 cell viability, U-87 MG glioblastoma cells; format: cell-based; conditions: for IC50: read-out: Absolute IC50
Protocol: as §1, §2, §3

[8] = tested on: MDA-MB-231 cells; assay: WST-1 cell viability, MDA-MB-231 triple negative breast cancer cells; format: cell-based; conditions: for IC50: read-out: Absolute IC50
Protocol: as §1, §2, §3

[9] = tested on: MDA-MB-468 cells; assay: WST-1 cell viability, MDA-MB-468 triple negative breast cancer cells; format: cell-based
Protocol: as §1, §2, §3

[10] = tested on: A2780 Cp cells; assay: WST-1 cell viability, A2780 CpR (cisplatin resistant) ovarian cancer cells; format: cell-based
Protocol: as §1, §2, §3

[11] = tested on: A2058 cells; assay: WST-1 cell viability, A2058 melanoma cells; format: cell-based; conditions: for IC50: read-out: Absolute IC50
Protocol: as §1, §2, §3

[12] = tested on: NCI-H292 cells; assay: WST-1 cell viability, NCI-H292 lung cancer cells; format: cell-based
Protocol: as §1, §2, §3

[13] = tested on: Human umbilical vein endothelial cells (HUVEC); assay: WST-1 cell viability, normal HUVEC cells; format: cell-based; conditions: 72 hrs
Protocol: as §1, §2, §3

[14] = tested on: U87 MG glioblastoma cells subcutaneously implanted in nude NMRI mice; assay: In vivo activity of PhAc-ALLP-Dox on U87 MG glioblastoma xenograft; parameters: species or system mouse; conditions: 30 mg/kg iv, once per week, four administrations
Protocol: The in vivo efficacy of PhAc-ALLP-Dox was tested in a mouse GBM model. U87 MG glioblastoma cells were subcutaneously (SC) implanted in nude NMRI mice. In total, 32 adult (9-10 weeks old) nude female NMRI mice (Janvier, France) were subjected to SC tumor cell grafting in the right flank. In total, 5×10^6 U87 MG cells resuspended in PBS plus Matrigel (1:1) were injected in 200 uL final volume. As soon as the tumors were palpable and reached the volume of 200 mm3 the treatment was started. At day zero, mice were randomly divided into 4 groups, based on the tumor volume, in order to have the following experimental sub-cohorts: • control group receiving the vehicle (PBS pH7.2) with a dose of 5 ml/kg, intravenously (iv), once per week (QW); • PhAc-ALLP-Dox (30 mg/kg iv, QW); • PhAc-ALGP-Dox (154 mg/kg iv, QW); • Dox (5 mg/kg iv, QW).
Treatments were performed once per week for a total of four tail vein administrations/injections (on days 1, 7, 14 and 21). One extra week of observation followed the active treatment phase. During the experiment, tumor volume was measured two times a week and was assessed three-dimensionally with a digital caliper (Mitutoyo, Illinois) using the following formula:
V=4/3π×[(d/2)^2×(D/2)], where d is the minor tumor axis and D is the major tumor axis.

COc1cccc2c1C(=O)c1c(O)c3c(c(O)c1C2=O)C[C@@](O)(C(=O)CO)C[C@@H]3O[C@H]1C[C@H](NC(=O)[C@@H]2CCCN2C(=O)[C@H](CC(C)C)NC(=O)[C@H](CC(C)C)NC(=O)[C@H](C)NC(=O)CP(=O)(O)O)[C@H](O)[C@H](C)O1 [PhAc-ALLP-Dox, PhAc-ALLP-Doxorubicin] (HELM PEPTIDE1{[O=C(CP(=O)(O)O)[*:2]].A.L.L.P.[COc1cccc2c1C(=O)c1c(O)c3c(c(O)c1C2=O)C[C@@](O)(C(=O)CO)C[C@@H]3O[C@H]1C[C@H](N[*:1])[C@H](O)[C@H](C)O1]}$$$$V2.0)
cytotoxicity at 72 h, 100 µM [1]: 59.5% | SI = HME-1 IC50/cancer IC50 ([2]; HME-1 normal cells against themselves (Table 3)): 1.00 | IC50 ([2]; HME-1 normal cells, 72 hrs continuous drug exposure, WST-1 (Table 1)): 36.9 µM | IC50 ([2]; HME-1 normal cells, 72 hrs, WST-1 (Table 4)): 36.9 µM | Maximal efficacy ([2]; HME-1 normal cells, 72 hrs, WST-1, cytotoxicity at highest concentration (Table 5)): 59.5% | SI = HME-1 IC50/cancer IC50 ([3]; MIA PaCa-2 (PaC) vs HME-1 (Table 3)): 0.79 | IC50 ([3]; MIA PaCa-2 (PaC), 72 hrs, WST-1 (Table 1), read-out: Absolute IC50): 46.8 µM | Maximal efficacy, cytotoxicity (%) at 100 μM ([3]; MIA PaCa-2 (PaC), 72 hrs, WST-1 (Table 2)): 65.41% | SI = HME-1 IC50/cancer IC50 ([4]; LS 174T (CrC) vs HME-1 (Table 3)): 1514.9 | IC50 ([4]; LS 174T (CrC), 72 hrs, WST-1 (Table 1), read-out: Absolute IC50): 0.02 µM | Maximal efficacy, cytotoxicity (%) at 100 μM ([4]; LS 174T (CrC), 72 hrs, WST-1 (Table 2)): 54.86% | SI = HME-1 IC50/cancer IC50 ([5]; HCT-116 (CrC) vs HME-1 (Table 3)): 3.34 | IC50 ([5]; HCT-116 (CrC), 72 hrs, WST-1 (Table 1), read-out: Absolute IC50): 11.1 µM | Maximal efficacy, cytotoxicity (%) at 100 μM ([5]; HCT-116 (CrC), 72 hrs, WST-1 (Table 2)): 67.49% | SI = HME-1 IC50/cancer IC50 ([6]; A-172 (GBM) vs HME-1 (Table 3)): 30.54 | SI = HUVEC IC50 / cancer IC50 ([6]; A-172 (GBM), * towards HUVEC cells (Table 6)): *34.4 | SI = iAstro IC50 / cancer IC50 ([6]; A-172 (GBM), ** towards hiPSCs (iAstro) (Table 6)): **15.8 | SI = normal IC50 / cancer IC50 ([6]; A-172 (GBM), selectivity towards HME-1 cells (Table 6)): 30.5 | IC50 ([6]; A-172 (GBM), 72 hrs, WST-1 (Table 1)): 1.21 µM | Maximal efficacy, cytotoxicity (%) at 100 μM ([6]; A-172 (GBM), 72 hrs, WST-1 (Table 2)): 98.08% | IC50 ([6]; A-172 (GBM), 72 hrs, WST-1 (Table 4)): 1.29 µM | Maximal efficacy ([6]; A-172 (GBM), 72 hrs, WST-1 (Table 5)): 80.9% | Selectivity index towards hiPSC-derived astrocytes, GBM ([6]; GBM indication as a whole (A-172 and U-87 MG), vs iAstro): 14.9±0.8 | SI = HME-1 IC50/cancer IC50 ([7]; U-87 MG (GBM) vs HME-1 (Table 3)): 128.53 | SI = HUVEC IC50 / cancer IC50 ([7]; U-87 MG (GBM), * towards HUVEC cells (Table 6)): *144.9 | SI = iAstro IC50 / cancer IC50 ([7]; U-87 MG (GBM), ** towards hiPSCs (iAstro) (Table 6)): **14.1 | SI = normal IC50 / cancer IC50 ([7]; U-87 MG (GBM), selectivity towards HME-1 cells (Table 6)): 128.5 | IC50 ([7]; U-87 MG (GBM), 72 hrs, WST-1 (Table 1)): 0.29 µM | Maximal efficacy, cytotoxicity (%) at 100 μM ([7]; U-87 MG (GBM), 72 hrs, WST-1 (Table 2)): 94.35% | IC50 ([7]; U-87 MG (GBM), 72 hrs, WST-1 (Table 4)): 1.44 µM | Maximal efficacy ([7]; U-87 MG (GBM), 72 hrs, WST-1 (Table 5)): 97.1% | SI = HME-1 IC50/cancer IC50 ([8]; MDA-MB-231 (TNBC) vs HME-1 (Table 3)): 3.85 | SI = HUVEC IC50 / cancer IC50 ([8]; MDA-MB-231 (TNBC), * towards HUVEC cells (Table 6)): *23.6 | SI = normal IC50 / cancer IC50 ([8]; MDA-MB-231 (TNBC), selectivity towards HME-1 cells (Table 6)): 20.9 | IC50 ([8]; MDA-MB-231 (TNBC), 72 hrs, WST-1 (Table 1)): 9.57 µM | Maximal efficacy, cytotoxicity (%) at 100 μM ([8]; MDA-MB-231 (TNBC), 72 hrs, WST-1 (Table 2)): 71.20% | IC50 ([8]; MDA-MB-231 (TNBC), 72 hrs, WST-1 (Table 4)): 9.57 µM | Maximal efficacy ([8]; MDA-MB-231 (TNBC), 72 hrs, WST-1 (Table 5)): 71.2% | SI = HME-1 IC50/cancer IC50 ([9]; MDA-MB-468 (TNBC) vs HME-1 (Table 3)): 20.94 | IC50 ([9]; MDA-MB-468 (TNBC), 72 hrs, WST-1 (Table 1), read-out: Absolute IC50): 1.76 µM | Maximal efficacy, cytotoxicity (%) at 100 μM ([9]; MDA-MB-468 (TNBC), 72 hrs, WST-1 (Table 2)): 87.18% | SI = HME-1 IC50/cancer IC50 ([10]; A2780 Cp (OvC) vs HME-1 (Table 3)): 257.22 | Maximal efficacy, cytotoxicity (%) at 100 μM ([10]; A2780 Cp (OvC), 72 hrs, WST-1 (Table 2)): 85.27% | IC50 ([10]; A2780 Cp (OvC, cisplatin resistant), 72 hrs, WST-1 (Table 1), read-out: Absolute IC50): 0.14 µM | SI = HME-1 IC50/cancer IC50 ([11]; A2058 (Melanoma) vs HME-1 (Table 3)): 298.19 | SI = HUVEC IC50 / cancer IC50 ([11]; A2058 (Melanoma), * towards HUVEC cells (Table 6)): *336.1 | SI = normal IC50 / cancer IC50 ([11]; A2058 (Melanoma), selectivity towards HME-1 cells (Table 6)): 298.2 | IC50 ([11]; A2058 (Melanoma), 72 hrs, WST-1 (Table 1)): 0.12 µM | Maximal efficacy, cytotoxicity (%) at 100 μM ([11]; A2058 (Melanoma), 72 hrs, WST-1 (Table 2)): 97.56% | IC50 ([11]; A2058 (Melanoma), 72 hrs, WST-1 (Table 4)): 0.12 µM | Maximal efficacy ([11]; A2058 (Melanoma), 72 hrs, WST-1 (Table 5)): 97.6% | SI = HME-1 IC50/cancer IC50 ([12]; NCI-H292 (NSCLC) vs HME-1 (Table 3)): 6.30 | IC50 ([12]; NCI-H292 (NSCLC), 72 hrs, WST-1 (Table 1), read-out: Absolute IC50): 5.86 µM | Maximal efficacy, cytotoxicity (%) at 100 μM ([12]; NCI-H292 (NSCLC), 72 hrs, WST-1 (Table 2)): 55.15% | IC50 ([13]; WST-1 (Table 4), read-out: Absolute IC50): 41.6 µM | Maximal efficacy ([13]; WST-1 (Table 5)): 53.1% | Tumor volume compared to the untreated control group [14]: importantly reduced the tumor volume
